Key:
[1] = tested on: mdx mice; assay: Forefoot grip strength of mdx mice (symptom evaluation); type: in vivo, mouse; details: 4 weeks old, oral, 30 mg/kg for 5 days, solvent group showed no significant change (FIG. 1, right)
Procedure: (§1) Muscular dystrophy mouse: mdx (C57Bl/10 ScSn; available from JAX Laboratories)
(§2) A solvent (0.5% methylcellulose solution) or test compound 1 was orally administered to mdx mice, 4 weeks old, for 5 days at a dose of 30 mg/kg. Using a metabolism cage for mice, urine was collected over the course of about 12 hours before the administration of test compound 1 and 5 days after the administration. For comparison, urine was also collected from wild-type mice of the same weeks old and the same lineage used as a control. The creatinine concentration in urine was measured using a measurement kit (L-type Wako CRE M, Wako Pure Chemical Industries, Ltd.).
For the symptom evaluation of the mdx mice, the forefoot grip strength was measured using a grip dynamometer for mice (traction meter; BrainSienceldea). Each measurement was made in 2 min, and the mean value of five trials was calculated.

[2] = tested on: mdx mice; assay: Urine Tetranor-PGDM concentration in mdx mice (HPLC-MS/MS); type: in vivo, mouse; details: oral, 30 mg/kg for 5 days (FIG. 1, left)
Procedure: as §1
as §2, with “Ltd.). […]” for “Ltd.).”
The pretreated urine sample was used for the measurement of Tetranor-PGDM levels. […] MRM (Multiple Reaction Monitoring) was used for quantification. In this technique, only the true parent ions are specifically selected from the mass of the parent ions (precursor ion) and of the fragment ions resulting from CID (collision-induced dissociation), and the parent ions are accurately quantified from the area of the selected ions. […] The fragment ions are then isolated in a second mass analyzer (Q3), and detected at the detector provided downstream. […] Area calculations were performed for the peaks originating from the Tetranor-PGDM in the resulting mass chromatogram, and each peak was quantified from the standard curve created from the standard sample. […]

[3] = tested on: CXMDJ; assay: Urine Tetranor-PGDM concentration in muscular dystrophy dog CXMDJ (HPLC-MS/MS); type: in vivo
From the text: Muscular dystrophy dog: CXMDJ (CXMDJ; available from National Center of Neurology and Psychiatry)
CXMDJ was orally administered with a solvent (0.5% methylcellulose solution) or test compound 2 for about 1 year, followed by the administration of test compound 2 for the solvent-administrated dog, and the solvent for the test compound 2-administered dog. Urine was collected before switching from the solvent to test compound 2, and from test compound 2 to the solvent. Urine was collected over time after the administered solution was switched. For comparison, urine was also collected from normal beagles used as a control.
The urine (200 μL) collected from the mice or dogs was mixed with 5 ng of deuterium-labeled Tetranor-PGDM-d6 (Cayman Chemical) used as internal standard. The volume was adjusted to 2 mL with purified water, and pH was adjusted to 3. The urine was then injected to a Sep-Pak Vac C18 cartridge (Waters) equilibrated with acetonitrile (5 mL) and purified water (5 mL). The sample was washed with a 10% acetonitrile solution (5 mL) prepared using purified water, and with hexane (10 mL), and eluted with ethyl acetate (5 mL) before being dried under a stream of nitrogen. The residue was dissolved in a 10% acetonitrile solution (100 μL) prepared using purified water, and used as a measurement sample.
The pretreated urine sample was used for the measurement of Tetranor-PGDM levels. […] MRM (Multiple Reaction Monitoring) was used for quantification. In this technique, only the true parent ions are specifically selected from the mass of the parent ions (precursor ion) and of the fragment ions resulting from CID (collision-induced dissociation), and the parent ions are accurately quantified from the area of the selected ions. […] The fragment ions are then isolated in a second mass analyzer (Q3), and detected at the detector provided downstream. Tetranor-PGDM (mass number 328) was detected by using any of the ions with a m/z (mass number charge) of 155, 143, and 109 produced by further decomposing the product ions with a m/z of 327 by CID (collision-induced dissociation). The internal standard Tetranor-PGDM-d6 (mass number 334) was detected by using any of the product ions with a m/z (mass number÷charge) of 161, 149, and 109 produced by further decomposing the product ions with a m/z of 333 by CID (collision-induced dissociation). […] Area calculations were performed for the peaks originating from the Tetranor-PGDM in the resulting mass chromatogram, and each peak was quantified from the standard curve created from the standard sample. In the quantification, correction was made by using the area value of the peak originating from the Tetranor-PGDM-d6 introduced as the internal standard for the correction of the extraction efficiency and ionization efficiency in each analysis.

[4] = tested on: CXMDJ; assay: Symptom scores of muscular dystrophy dog CXMDJ; type: in vivo
[5] = CXMDJ switched to solvent after about 1 year of oral test compound 2 (FIG. 2, left)
[6] = CXMDJ switched to the inhibitor after about 1 year of oral solvent (FIG. 2, right)

Row | Structure (SMILES) | forefoot grip strength [1] | Tetranor-PGDM concentration in urine [2] | Tetranor-PGDM concentration in urine ([3]; CXMDJ dog orally administered with test compound 2, compared with CXMDJ dog (Table 1)) | urine Tetranor-PGDM concentration [3, 5] | urine Tetranor-PGDM concentration [3, 6] | Tetranor-PGDM concentration ([3]; urine of HPGDS inhibitor-administered CXMDJ dog (CXMDJ dog without inhibitor 27.8)) | symptom scores [4, 5] | symptom scores [4, 6]
1 | c1ccc(C(OC2CCN(CCCc3nnn[nH]3)CC2)c2ccccc2)cc1 [Test compound 1, 4-benzhydryloxy-1-{3-(1H-tetrazol-5-yl)-propyl}piperidine] | significantly increased | significantly lower |  |  |  |  |  | 
2 | CON(C)C(=O)c1[nH]c(C)c(-c2nc3ccc(C(=O)c4ccccc4)cc3[nH]2)c1C [Test compound 2] |  |  | decreased | increased | decreased | 17.9 ng/mL | worsened | improved
